These results are taken from US11535613B2 (GUANGDONG RAYNOVENT BIOTECH CO., LTD., priority 2018, dated 2022).

A short description of the data set: Solid stability test of crystal forms (high temperature, high humidity, light radiation, accelerated conditions; appearance, content, impurities, crystal form by XRPD). In kind it is physicochemical. As to conditions: for change of crystal form (XRPD detection): after the solid stability test conditions; for XPRD: crystal form found; for change in total impurity content: high temperature. The source says: High Performance Liquid Chromatograph (HPLC) The analytic method is as follows: [table] [table] […] The sample was placed under high temperature, high humidity and acceleration conditions. The bottle was sealed with an aluminum foil, and some small holes were pierced on the aluminum foil to ensure that the sample could fully contact with the ambient air. The sample placed under light radiation was placed upright at room temperature and open to the air. The sample was exposed to a light source, and radiated with sufficient energy prior to taking samples for detection. Samples were taken at various time points for analysis, and the detection results were compared with the initial detection results obtained at Day 0. The investigation items include appearance, content and impurities. […] The sample was placed under high temperature, high humidity and acceleration conditions. The bottle was sealed with an aluminum foil, and some small holes were pierced on the aluminum foil to ensure that the sample could fully contact with the ambient air. The sample placed under light radiation was placed upright at room temperature and open to the air. The sample was exposed to a light source, and radiated with sufficient energy prior to taking samples for detection. Samples were taken at various time points for analysis, and the detection results were compared with the initial detection results obtained at Day 0. The investigation items include appearance, content and impurities. […] Samples were taken at various time points, and the test results were compared with the initial test results obtained at Day 0. […] The investigation items include appearance, impurities, and crystal forms.

[1] abbreviates: Acceleration test (40° C./relative humidity 75%, open), Day 5.
The mark [2] stands for this setting: Acceleration test (40° C./relative humidity 75%, open), Day 12.
Setting [3] is: High humidity (room temperature/relative humidity 92.5%, open), Day 5.
The mark [4] stands for this setting: High humidity (room temperature/relative humidity 92.5%, open), Day 12.
The mark [5] stands for this setting: High temperature (60° C., open), Day 5.
The mark [6] stands for this setting: High temperature (60° C., open), Day 12.
Where [7] appears, read: Light radiation (total illumination 1.2 × 10^6 Lux · hr), Day 5.
Where [8] appears, read: Light radiation (total illumination 1.2 × 10^6 Lux · hr), Day 12.
Setting [9] is: Acceleration test (40° C./relative humidity 75%, open), Day 30.
Setting [10] is: High humidity (room temperature/relative humidity 92.5%, open), Day 30.
Setting [11] is: High temperature (60° C., open), Day 30.

For `O=C(O)[C@H]1C2CCC(CC2)[C@@H]1Nc1nc(-c2n[nH]c3ncc(F)cc23)nc(C2CC2)c1F` [crystal form F], the “change of crystal form (XRPD detection)” value is on record as “does not change”. For the same molecule, the Appearance entry under setting [1] is given as “Off-white solid”. Moreover, under setting [2], the Appearance entry is “Off-white solid”, the “Total Impurities (%)” value worked out at 1.9% and the XPRD entry was “Crystal form F”. Besides, under “Day 0 (initial)”, the Appearance result is “Off-white solid”, the “Total Impurities (%)” value came out at 1.7% and the XPRD result is recorded as “Crystal form F”. For the same molecule, the Appearance entry under setting [3] is “Off-white solid”. In addition, under setting [4], the Appearance entry is on record as “Off-white solid”, the “Total Impurities (%)” value turned out to be 1.9% and the XPRD result was “Crystal form F”. Further, the Appearance entry under setting [5] is given as “Off-white solid”. Under setting [6], the Appearance entry is on record as “Off-white solid”, the “Total Impurities (%)” value was found to be 1.9% and the XPRD entry is reported as “Crystal form F”. Besides, under setting [7], the Appearance result is listed as “Off-white solid”. Under setting [8], the Appearance entry is “Off-white solid”, the “Total Impurities (%)” value amounted to 1.8% and the XPRD result is listed as “Crystal form F”. Moreover, under “high humidity and accelerated experiments”, the “change in total impurity content” value is given as “almost no change”.

As for `O=C(O)[C@H]1C2CCC(CC2)[C@@H]1Nc1nc(-c2n[nH]c3ncc(F)cc23)nc(C2CC2)c1F` [crystal form H], the “change of crystal form (XRPD detection)” value is recorded as “does not change”. The Appearance entry under setting [1] was “Off-white solid”. Further, under setting [9], the Appearance result is on record as “Off-white solid”, the “Total Impurities (%)” value is recorded as 2.0% and the XPRD entry was “Crystal form H”. In addition, where the note is “Day 0 (initial)”, the Appearance result is on record as “Off-white solid”, the “Total Impurities (%)” value is on record as 1.8% and the XPRD result is “Crystal form H”. In addition, under setting [3], the Appearance result was “Off-white solid”. Further, under setting [10], the Appearance entry is recorded as “Off-white solid”, the “Total Impurities (%)” value came to 1.9% and the XPRD result is on record as “Crystal form H”. For the same molecule, the Appearance entry under setting [5] is recorded as “Off-white solid”. Under setting [11], the Appearance entry was “Off-white solid”, the “Total Impurities (%)” value is recorded as 2.0% and the XPRD result is given as “Crystal form H”. Under setting [7], the Appearance entry is “Off-white solid”. Further, under setting [8], the Appearance result is reported as “Yellowish solid”, the “Total Impurities (%)” value was determined as 1.9% and the XPRD result was “Crystal form H”. For the same molecule, the “change in total impurity content” value (high humidity, light radiation and accelerated experiments) was “almost no change”.
